Test results reported in PubChem BioAssay (NCI).
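Cells were grown in 96-well plates and exposed to each compound for 48 hours at five concentrations; endpoints were interpolated linearly between bracketing concentrations, or set to the highest concentration if not reached. GI50: concentration for 50% inhibition of growth. The concentration for full growth arrest is given as TGI.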

Tests used:
Experiment in all cases: NCI tumour cell line growth inhibition, 48 h
[1] = test system: ACHN renal
[2] = test system: IGROV1 ovarian
[3] = test system: K-562 leukemia
[4] = test system: LOX IMVI melanoma
[5] = test system: NCI-H23 lung
[6] = test system: SK-MEL-2 melanoma
[7] = test system: SK-MEL-28 melanoma
[8] = test system: SK-OV-3 ovarian
[9] = test system: UO-31 renal
[10] = test system: OVCAR-8 ovarian

Row | Structure (SMILES) | GI50 [1] | TGI [1] | GI50 [2] | TGI [2] | GI50 [3] | TGI [3] | GI50 [4] | TGI [4] | GI50 [5] | TGI [5] | GI50 [6] | TGI [6] | GI50 [7] | TGI [7] | GI50 [8] | TGI [8] | GI50 [9] | TGI [9] | TGI [10] | GI50 [10]
1 | O=C1C2C(C(=O)[N]1[Hg][c]1cccs1)C1(Cl)C(Cl)=C(Cl)C2(Cl)C1(Cl)Cl (stereo not drawn) | 1610 nM | 3.04 µM | 1290 nM | 3.52 µM | 291 nM | 3.41 µM | 708 nM | 1.94 µM | 1620 nM | 3.14 µM | 1.56 µM | 3.23 µM | 1.24 µM | 2.7 µM | 5.71 µM | 17.9 µM | 1740 nM | 3.21 µM | – | –
2 | COc1ccc2c(c1O)C13CCN(C)C(C2)C1CCC1(C3)OCCO1 (stereo not drawn) | – | > 100 µM | – | > 100 µM | – | – | – | > 100 µM | – | > 100 µM | – | > 100 µM | – | > 100 µM | – | > 100 µM | – | > 100 µM | > 100 µM | –
3 | COc1cc2c(cc1O)-c1c(cnn1-c1ccc([N+](=O)[O-])cc1)CCC2 | – | 14.6 µM | – | 18.7 µM | – | > 100 µM | – | 26.5 µM | – | 41.9 µM | – | 37.4 µM | – | > 100 µM | – | > 100 µM | – | – | 50.3 µM | –
4 | CS(=O)(=O)OCC1OC(n2ccc(NC(=O)c3ccccc3)nc2=O)CC1OS(C)(=O)=O (stereo not drawn) | – | > 100 µM | – | > 100 µM | – | > 100 µM | – | > 100 µM | – | > 100 µM | – | > 100 µM | – | > 100 µM | – | > 100 µM | – | – | > 100 µM | –
5 | COc1cc2c3c(n(CCCN(CCN)CCCn4c5c(c6cc(OC)c(OC)cc6c4=O)C(=O)c4cc6c(cc4-5)OCO6)c(=O)c2cc1OC)-c1cc2c(cc1C3=O)OCO2 | 376 nM | 3.02 µM | – | – | 2730 nM | > 32.5 µM | 570 nM | 6.32 µM | 984 nM | 5.24 µM | 21.1 µM | > 100 µM | > 37.1 µM | > 100 µM | 1.41 µM | > 91.6 µM | 892 nM | 8.18 µM | > 42.2 µM | 1530 nM
6 | O=c1c2ccccc2c(Br)c(Br)c2ccccc12 | 7460 nM | 21.9 µM | 2370 nM | 5.37 µM | – | – | 2220 nM | 5.77 µM | 12700 nM | 38.7 µM | 13.3 µM | 32.5 µM | 24.9 µM | > 100 µM | 38.3 µM | > 100 µM | 1900 nM | 3.44 µM | 34.2 µM | 13900 nM
7 | CC(C)[C@H]1CC[C@H]2[C@@H](CC[C@H]3[C@](C)(CN)CCC[C@]23C)C1 | 2420 nM | 6.44 µM | – | – | 2250 nM | 5.31 µM | 1610 nM | 2.98 µM | 1790 nM | 3.39 µM | 2.57 µM | 5.99 µM | 16.8 µM | 30.8 µM | 4.25 µM | 16.3 µM | 1760 nM | 4.21 µM | 5.62 µM | 2610 nM
8 | N#CC(C(=O)/C(=N/NC(=O)c1ccccc1O)C(C#N)c1ccccc1)c1ccccc1 (stereo not drawn) | – | > 100 µM | – | > 100 µM | – | – | – | > 100 µM | – | > 100 µM | – | > 100 µM | – | > 100 µM | – | > 100 µM | – | > 100 µM | > 100 µM | –
